Test results published in EP4678638A1, “NEW E3 UBIQUITIN LIGASE LIGAND, PROTEIN DEGRADATION AGENT AND USE THEREOF” (priority 2023, dated 2024).

Target: T1, human Cereblon WT GST-tagged protein (Homo sapiens, UniProt Q96SW2)
T1 construct: purchased CISBIO 64BDCRBNPEH
Assay: CRBN binding, HTRF (CEREBLON BINDING kit)
Conditions: Table II-2, CRBN binding screening, HTRF; for inhibition at 0.5 µM: read-out: Inhibition rate (%) at 0.5µM; for inhibition at 2 µM: read-out: Inhibition rate (%) at 2 µM
Protocol: The CEREBLON BINDING kits (specification: 10,000 tests; product number: Catalog # 64BDCRBNPEH; CISBIO company) was used to determine the CRBN binding ability of the compounds to be tested through a HTRF method (homogeneous time-resolved fluorescence). The specific methods are as follows: • 1. […] Then, 2.5 µL of human Cereblon WT GST-tagged protein solution was added to each well. Finally, 5 µL of the thoroughly mixed Thalidomide-Re reagent and GST Eu antibody working solution were added to each of the aforementioned wells. […] The blank control wells were sequentially added with 2.5 µL of diluent #9 (1X) solution, 2.5 µL of binding buffer, and 5 µL of thoroughly mixed Thalidomide-Re reagent and GST Eu antibody working solution. • 4. After sealing and incubating the solutions in the aforementioned wells at room temperature for 3 hours, the […] at emission wavelengths of 620 nm and 665 nm were detected by the HTRF method using a Spark microplate reader (V3.1 SP1).

T1 sequence (Q96SW2 whole entry): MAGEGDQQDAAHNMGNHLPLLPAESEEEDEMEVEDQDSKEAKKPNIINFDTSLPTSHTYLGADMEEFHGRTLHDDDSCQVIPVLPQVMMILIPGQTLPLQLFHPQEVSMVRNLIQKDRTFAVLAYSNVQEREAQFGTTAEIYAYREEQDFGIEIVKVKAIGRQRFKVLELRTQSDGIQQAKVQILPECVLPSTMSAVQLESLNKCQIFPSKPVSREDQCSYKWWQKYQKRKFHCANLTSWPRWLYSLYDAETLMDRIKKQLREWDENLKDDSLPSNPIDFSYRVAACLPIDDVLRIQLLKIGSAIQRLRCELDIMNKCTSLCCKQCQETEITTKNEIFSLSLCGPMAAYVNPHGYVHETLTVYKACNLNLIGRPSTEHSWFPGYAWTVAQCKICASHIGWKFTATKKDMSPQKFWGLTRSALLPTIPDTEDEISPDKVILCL

SMILES	inhibition at 0.5 µM (at 0.5µM)	inhibition at 2 µM (at 2 µM)	Inhibition rate (%) at 0.5µM (at 0.5µM)	Inhibition rate (%) at 2 µM (at 2 µM)
CC(C)(O)c1cc2nc(C3CCN(Cc4cc(C5CCC(=O)NC5=O)cnc4F)CC3)sc2cc1NC(=O)c1cccc(C(F)(F)F)n1 (centres unmarked) [GT-07621, N-(2-(1-((5-(2,6-dioxopiperidin-3-yl)-2-fluoropyridin-3-yl)methyl)piperidin-4-yl)-5-(2-hydroxypropan-2-yl)benzo[d]thiazol-6-yl)-6-(trifluoromethyl)picolinamide]	53 to 60%	60 to 80%	–	–
CNC(=O)c1ccccc1Nc1cc(Nc2ccc(N3CCC(N(C)Cc4cc(C5CCC(=O)NC5=O)cnc4F)CC3)cc2OC)ncc1C(F)(F)F (centres unmarked) [GT-07656, 2-((2-((4-(4-(((5-(2,6-dioxopiperidin-3-yl)-2-fluoropyridin-3-yl)methyl)(methyl)amino)piperidin-1-yl)-2-methoxyphenyl)amino)-5-(trifluoromethyl)pyridin-4-yl)amino)-N-methylbenzamide]	20 to 30%	60 to 80%	–	–
CNC(=O)c1ccccc1Nc1cc(Nc2cc(C)c(C3CCN(Cc4ccc(N5CCC(=O)NC5=O)cc4)CC3)cc2OC(C)C)ncc1C(F)(F)F [GT-07667, 2-((2-((4-(1-(4-(2,4-dioxotetrahydropyrimidin-1(2H)-yl)benzyl)piperidin-4-yl)-2-isopropoxy-5-methylphenyl)amino)-5-(trifluoromethyl)pyridin-4-yl)amino)-N-methylbenzamide]	20 to 30%	53 to 60%	–	–
CNC(=O)c1ccccc1Nc1cc(Nc2cc(C)c(C3CCN(Cc4cccc(N5CCC(=O)NC5=O)c4)CC3)cc2OC(C)C)ncc1C(F)(F)F [GT-07668, 2-((2-((4-(1-(3-(2,4-dioxotetrahydropyrimidin-1(2H)-yl)benzyl)piperidin-4-yl)-2-isopropoxy-5-methylphenyl)amino)-5-(trifluoromethyl)pyridin-4-yl)amino)-N-methylbenzamide]	–	–	a2 (20% < a2 ≤ 30%)	a5 (53% < a5 ≤ 60%)
CNC(=O)c1ccccc1Nc1cc(Nc2cc(C)c(C3CCN(Cc4ccc(N5CCC(=O)NC5=O)cn4)CC3)cc2OC(C)C)ncc1C(F)(F)F [GT-07669, 2-((2-((4-(1-((5-(2,4-dioxotetrahydropyrimidin-1(2H)-yl)pyridin-2-yl)methyl)piperidin-4-yl)-2-isopropoxy-5-methylphenyl)amino)-5-(trifluoromethyl)pyridin-4-yl)amino)-N-methylbenzamide]	10 to 20%	53 to 60%	–	–
CNC(=O)c1ccccc1Nc1cc(Nc2cc(C)c(C3CCN(Cc4cc(C5CCC(=O)NC5=O)cnc4F)CC3)cc2OC(C)C)ncc1C(F)(F)F (centres unmarked) [GT-07675, 2-((2-((4-(1-((5-(2,6-dioxopiperidin-3-yl)-2-fluoropyridin-3-yl)methyl)piperidin-4-yl)-2-isopropoxy-5-methylphenyl)amino)-5-(trifluoromethyl)pyridin-4-yl)amino)-N-methylbenzamide]	40 to 53%	60 to 80%	–	–
COc1cc(N2CCC(N3CCN(Cc4cc(N5CCC(=O)NC5=O)cnc4F)CC3)CC2)ccc1Nc1ncc(Cl)c(Nc2ccccc2P(C)(C)=O)n1 [GT-07759, 1-(5-((4-(1-(4-((5-chloro-4-((2-(dimethylphosphoryl)phenyl)amino)pyrimidin-2-yl)amino)-3-methoxyphenyl)piperidin-4-yl)piperazin-1-yl)methyl)-6-fluoropyridin-3-yl)dihydropyrimidine-2,4(1H,3H)-dione]	30 to 40%	53 to 60%	–	–
O=C1CCN(c2cnc(F)c(CN3CCN(c4ccc(-c5cc(F)c6c(c5)C(=O)N(C(CNc5nccs5)c5ncn7c5CCC7)C6)cc4)CC3)c2)C(=O)N1 (centres unmarked) [GT-07760, 1-(5-((4-(4-(2-(1-(6,7-dihydro-5H-pyrrolo[1,2-c]imidazol-1-yl)-2-(thiazol-2-ylamino)ethyl)-7-fluoro-3-oxoisoindolin-5-yl)phenyl)piperazin-1-yl)methyl)-6-fluoropyridin-3-yl)dihydropyrimidine-2,4(1H,3H)-dione]	40 to 53%	60 to 80%	–	–
O=C1CCN(c2cnc(CN3CCN(c4ccc(-c5cc(F)c6c(c5)C(=O)N(C(C(=O)Nc5nccs5)c5ncn7c5CCC7)C6)cc4)CC3)cn2)C(=O)N1 (centres unmarked) [GT-07761, 2-(6,7-dihydro-5H-pyrrolo[1,2-c]imidazol-1-yl)-2-(6-(4-(4-((5-(2,4-dioxotetrahydropyrimidin-1(2H)-yl)pyrazin-2-yl)methyl)piperazin-1-yl)phenyl)-4-fluoro-1-oxoisoindolin-2-yl)-N-(thiazol-2-yl)acetamide]	20 to 30%	53 to 60%	–	–

Further lines, with some results ahead:

inhibition at 0.5 µM (at 0.5µM)	inhibition at 2 µM (at 2 µM)	SMILES	Inhibition rate (%) at 0.5µM (at 0.5µM)	Inhibition rate (%) at 2 µM (at 2 µM)
20 to 30%	60 to 80%	CN(C)C(=O)c1cc2cnc(Nc3ccc(N4CCN(Cc5cc(C6CCC(=O)NC6=O)cnc5F)CC4)cn3)nc2n1C1CCCC1 (centres unmarked) [GT-07563, 7-cyclopentyl-2-((5-(4-((5-(2,6-dioxopiperidin-3-yl)-2-fluoropyridin-3-yl)methyl)piperazin-1-yl)pyridin-2-yl)amino)-N,N-dimethyl-7H-pyrrolo[2,3-d]pyrimidine-6-carboxamide]	–	–
20 to 30%	80 to 100%	CC(=O)c1c(C)c2cnc(Nc3ccc(N4CCN(Cc5cc(C6CCC(=O)NC6=O)cnc5F)CC4)cn3)nc2n(C2CCCC2)c1=O (centres unmarked) [GT-07591, 3-(5-((4-(6-((6-acetyl-8-cyclopentyl-5-methyl-7-oxo-7,8-dihydropyrido[2,3-d]pyrimidin-2-yl)amino)pyridin-3-yl)piperazin-1-yl)methyl)-6-fluoropyridin-3-yl)piperidine-2,6-dione]	–	–
60 to 80%	80 to 100%	CC(C)(O)c1cc2nc(C3CCN(Cc4cc(C5CCC(=O)NC5=O)cnc4F)CC3)oc2cc1NC(=O)c1cccc(C(F)(F)F)n1 (centres unmarked) [GT-07629, N-(2-(1-((5-(2,6-dioxopiperidin-3-yl)-2-fluoropyridin-3-yl)methyl)piperidin-4-yl)-5-(2-hydroxypropan-2-yl)benzo[d]oxazol-6-yl)-6-(trifluoromethyl)picolinamide]	–	–
20 to 30%	60 to 80%	CC(C)(O)c1cc2nc(C3CCN(Cc4cncc(C5CCC(=O)NC5=O)c4)CC3)oc2cc1NC(=O)c1cccc(C(F)(F)F)n1 (centres unmarked) [GT-07630, N-(2-(1-((5-(2,6-dioxopiperidin-3-yl)pyridin-3-yl)methyl)piperidin-4-yl)-5-(2-hydroxypropan-2-yl)benzo[d]oxazol-6-yl)-6-(trifluoromethyl)picolinamide]	–	–
30 to 40%	60 to 80%	O=C1CCN(c2cncc(CN3CCC(n4cc(NC(=O)c5cnn6ccc(N7CCOCC7)nc56)c(C(F)F)n4)CC3)c2)C(=O)N1 [GT-07766, N-(3-(difluoromethyl)-1-(1-((5-(2,4-dioxotetrahydropyrimidin-1(2H)-yl)pyridin-3-yl)methyl)piperidin-4-yl)-1H-pyrazol-4-yl)-5-morpholinopyrazolo[1,5-a]pyrimidine-3-carboxamide]	–	–
40 to 53%	80 to 100%	O=C1CCC(c2cnc(F)c(CN3CCC(n4cc(NC(=O)c5cnn6ccc(N7CCOCC7)nc56)c(C(F)F)n4)CC3)c2)C(=O)N1 (centres unmarked) [GT-07767, N-(3-(difluoromethyl)-1-(1-((5-(2,6-dioxopiperidin-3-yl)-2-fluoropyridin-3-yl)methyl)piperidin-4-yl)-1H-pyrazol-4-yl)-5-morpholinopyrazolo[1,5-a]pyrimidine-3-carboxamide]	–	–
40 to 53%	80 to 100%	O=C1CCC(c2ccc(CN3CCC(n4cc(NC(=O)c5cnn6ccc(N7CCOCC7)nc56)c(C(F)F)n4)CC3)nc2)C(=O)N1 (centres unmarked) [GT-07769, N-(3-(difluoromethyl)-1-(1-((5-(2,6-dioxopiperidin-3-yl)pyridin-2-yl)methyl)piperidin-4-yl)-1H-pyrazol-4-yl)-5-morpholinopyrazolo[1,5-a]pyrimidine-3-carboxamide]	–	–
30 to 40%	80 to 100%	O=C1CCC(c2cncc(CN3CCC(n4cc(NC(=O)c5cnn6ccc(N7CCOCC7)nc56)c(C(F)F)n4)CC3)c2)C(=O)N1 (centres unmarked) [GT-07770, N-(3-(difluoromethyl)-1-(1-((5-(2,6-dioxopiperidin-3-yl)pyridin-3-yl)methyl)piperidin-4-yl)-1H-pyrazol-4-yl)-5-morpholinopyrazolo[1,5-a]pyrimidine-3-carboxamide]	–	–
40 to 53%	80 to 100%	O=C1CCN(c2cncc(CN3CCC(n4cc(NC(=O)c5cnn6ccc(N7C[C@H]8C[C@@H]7CO8)nc56)c(C(F)F)n4)CC3)c2)C(=O)N1 [GT-07774, 5-((1R,4R)-2-oxa-5-azabicyclo[2.2.1]heptan-5-yl)-N-(3-(difluoromethyl)-1-(1-((5-(2,4-dioxotetrahydropyrimidin-1(2H)-yl)pyridin-3-yl)methyl)piperidin-4-yl)-1H-pyrazol-4-yl)pyrazolo[1,5-a]pyrimidine-3-carboxamide]	–	–
60 to 80%	80 to 100%	O=C1CCC(c2cnc(F)c(CN3CCC(n4cc(NC(=O)c5cnn6ccc(N7C[C@H]8C[C@@H]7CO8)nc56)c(C(F)F)n4)CC3)c2)C(=O)N1 (stereo partly drawn) [GT-07775, 5-((1R,4R)-2-oxa-5-azabicyclo[2.2.1]heptan-5-yl)-N-(3-(difluoromethyl)-1-(1-((5-(2,6-dioxopiperidin-3-yl)-2-fluoropyridin-3-yl)methyl)piperidin-4-yl)-1H-pyrazol-4-yl)pyrazolo[1,5-a]pyrimidine-3-carboxamide]	–	–
